“Also recorded” adds a separate entry of the source.
Key:
[1] = molecular target: T1, K-Ras G12D (Homo sapiens, UniProt P01116, G12D); experiment: Western blot of K-Ras G12D protein levels in Panc 08.13 cancer cells after peptide treatment; assay type: cell-based; settings: Panc 08.13 cells (homozygous K-Ras G12D), 30 minutes treatment, 0.3 mM
From the text: Example 5. Degradation of K-Ras G12D using Cyclic Peptides. […] Proteolysis-targeting chimeras (PROTACs) using Hif and other proteins are described in Toure and Crews, 2016, Angew. Chem. Int. Ed, 55:2-10, the entire contents of which are incorporated herein by reference. The 7b-Hif PROTAC was further conjugated with the HIV-TAT cell-penetrating peptide […] (SEQ ID NO: 24).
Cell culture. Panc 08.13 cell lines were purchased from American Type Culture collection and cultured as specified by the provider.
Immunoblotting. Western blots were performed according to standard protocols. Briefly, cells were lysed with cell lysis buffer (Cell Signaling Technology) containing protease and phosphatase inhibitors (Cell Signaling Technology). Cell lysates were quantified with a Bradford protein assay (Thermo Scientific) and prepared for gel electrophoresis in Laemmli sample buffer and reducing agent. 20 μg of cell lysate were added to precast polyacrylamide gels (Bio-Rad) and proteins were separated by electrophoresis followed by transfer to PVDF membrane. Membranes were then blocked and probed with an anti-Ras or anti-Tubulin primary antibody followed by horseradish peroxidase-conjugated secondary antibody (Cell Signaling Technology). The bands were visualized by chemiluminescence (Thermo Scientific).

[2] = molecular target: T1, K-Ras G12D; experiment: ELISA binding assay of biotinylated cyclic peptides to K-Ras G12D
Method: For ELISA assays, 1 μM of the biotinylated hit peptides were first immobilized onto Neutravidin ELISA plates (Pierce) for 2 hours at room temperature in binding buffer (TBST with 0.1% BSA). […] After washing three times with TBST the plate was then treated with a 1:1000 dilution of the anti-RAS rabbit mAb (Cell Signaling Technology) in binding buffer for thirty minutes, washed three times with TBST, incubated with anti-Rabbit-HRP secondary antibody (Cell Signaling Technology) for thirty minutes and developed with TMB substrate (KPL) for five to ten minutes. The absorbance of samples at 450 nm wavelength was measured using a spectrophotometer.

SMILES	levels of K-Ras G12D protein by Western blot [1]	binding to K-Ras G12D in ELISA (absorbance units), result in words [2]
CC(C)C[C@@H]1NC(=O)[C@@H](N)Cc2cn(nn2)CCCC[C@@H](C(=O)NCCCOCCOCCOCCCNC(=O)CCCC[C@@H]2SC[C@@H]3NC(=O)N[C@@H]32)NC(=O)[C@H](CCCNC(=N)N)NC(=O)[C@@H]2CCCN2C(=O)CNC(=O)[C@H](CCCNC(=N)N)NC1=O [7b5, Pra-LRGPR-Az4-PEG-Biotin]	induce proteasomal degradation of K-Ras G12D	–
CC(C)C[C@@H]1NC(=O)[C@@H](N)Cc2cn(nn2)CCCC[C@@H](C(=O)NCCCOCCOCCOCCCNC(=O)CCCC[C@@H]2SC[C@@H]3NC(=O)N[C@@H]32)NC(=O)[C@H](CCCNC(=N)N)NC(=O)[C@H](CC(=O)O)NC(=O)CNC(=O)[C@H](CCCNC(=N)N)NC1=O [7b, Pra-LRGDR-Az4-PEG-Biotin]	–	strongest binding fluorescence; also recorded: highest affinity

Reference: US10913774B2, “Cyclic peptide binder against oncogenic K-Ras” (California Institute of Technology, priority 2015, dated 2021)
